Test results: patent US5552421A, “Leukotriene biosynthesis inhibitors” (Boehringer Ingelheim Pharmaceuticals, Inc., priority 1995, dated 1996)

What was measured:
[1] = tested on: LTB4 biosynthesis in human polymorphonuclear leukocytes (PMNs); experiment: Inhibition of LTB4 biosynthesis in human polymorphonuclear leukocytes (PMNs); format: cell-based; details: Homo sapiens, Leukocyte, values with <: see footnote d, Table 1
[2] = tested on: leukotriene component of antigen-induced bronchoconstriction; experiment: Antigen-Induced Bronchoconstriction in Guinea Pigs; format: in vivo, guinea pig (male Hartley); details: aerosol, vs placebo treated controls
Description: Antigen-Induced Bronchoconstriction in Guinea Pigs
This model measures the ability of a compound to block the leukotriene component of antigen-induced bronchoconstriction. Male Hartley guinea pigs are actively sensitized to ovalbumin, pretreated with mepyramine and indomethacin (to block the histamine and cyclooxygenase metabolite components respectively), and test compound (by aerosol administration). The guinea pigs are challenged with antigen (inhaled ovalbumin). Pulmonary function is measured by oscillatory mechanics as described by W. W. Wolyniec et al. (Agents and Actions 1991, 34, 1/2, 73). Results are expressed as percent inhibition of bronchoconstriction (resistance) in the test compound treated guinea pigs compared to placebo treated controls.
*Refers to amount of test compound inhaled by gunea pig. Compounds
administered by aerosolized freon/ethanol solution from metered dose

SMILES	IC50 ([1]; Table 3, Phenyl) [µM]	% Inhibition of bronchoconstriction (resistance) ([2]; 274 micrograms inhaled) [%]	% Inhibition of bronchoconstriction (resistance) ([2]; 28 micrograms inhaled) [%]	further results
COc1ccc(C(CC2CCCCC2)Nc2nc3ccccc3o2)cc1 (stereo not drawn) [Compound 56]	0.55	–	–	% Inhibition of bronchoconstriction (resistance) ([2]; 95 micrograms inhaled): 43%
c1ccc(C(CC2CCCCC2)Nc2nc3ccccc3o2)cc1 (stereo not drawn) [Compound 51, 2-(2-Cyclohexyl-1-phenyl]ethylaminobenzoxazole]	0.0069	86	–	–
Cc1ccc2oc(NC(CC3CCCCC3)c3ccccn3)nc2n1 (stereo not drawn) [Compound 165]	–	84	64	IC50 ([1]; Table 10, Oxazolopyridines): 0.026 µM; % Inhibition of bronchoconstriction (resistance) ([2]; 5.6 micrograms inhaled): 0%
Cc1ccc2oc(NC(CC3CCCCC3)c3ccccn3)nc2c1 (stereo not drawn) [Compound 81]	–	–	64	IC50 ([1]; Table 4, Pyridyl): 0.0031 µM; % Inhibition of bronchoconstriction (resistance) ([2]; 2.8 micrograms inhaled): 61%; % Inhibition of bronchoconstriction (resistance) ([2]; 308 micrograms inhaled): 64%
